# Peptide text beside a SMILES is read from it. * marks the point of attachment. Palmitoyl = CCCCCCCCCCCCCCCC(=O)*
# Tests used:
# [1] = Nile Red assay, critical aggregation concentration; type: physicochemical; details: PBS, aged 24 hours at 4° C.
# Procedure: Nile Red assay: The critical aggregation concentration (CAC) for PA nanofibers was determined by diluting the PAs in Nile Red solution. Nile Red undergoes a blue shift in fluorescence as the hydrophobic character of PAs in the solvent increases, with a corresponding increase in fluorescence intensity due to reduced twisted intramolecular charge transfer. 10% MMP- and ROS-Ac2-26 PAs were diluted from 1 mM to 100 nM in PBS containing of 2.5 μM Nile Red and aged for 24 hours at 4° C. The PAs were aliquoted in triplicate onto a 96-well plate, excited at 550 nm, and the fluorescence read from […]. The CAC was determined by plotting the log of the concentration with the corresponding maximum fluorescence intensity, and calculating the concentration at the intersection of the baseline and tangent line to the rising curve.
# [2] = system: inducible nitric oxide synthase (iNOS); test: iNOS expression by flow cytometry; type: cell-based, mouse; details: vs. stimulated control
# [3] = TEM characterization of PA nanofibers for diameter and length (Example 3); type: physicochemical; details: 30 measurements from three images
# Procedure: Samples at 1 mM in PBS were prepared for TEM by plating on copper supports covered with thin carbon foil 400-mesh that were treated with glow discharge. […] Due to the overlapping fibers, automated tools including FiberApp could not be used to analyze the nanofibers. Instead, the TEM images were analyzed manually for nanofiber diameter and length using ImageJ software. Cryogenic TEM of samples was also performed using a JEOL 1230 at 100 kV accelerating voltage and Gatan 831 CCD camera. […] Samples were prepared at 1 mM in PBS blotted once for 3 seconds before plunging into liquid ethane using a Vitrobot Mark III (FEI) vitrification robot.
# [4] = system: LDLR KO mice; test: Atherosclerosis treatment study; type: in vivo, mouse; details: both sexes, twice per week over eight weeks, percent of atherosclerosis in the aortic root
# Procedure: Mouse model of atherosclerosis: To study atherosclerosis, the LDLR KO mouse was used. LDLR KO mice are fed a high fat “western” diet (Teklad TD.88137) starting at 4 weeks of age. This diet consists of 20% fat, 0.2% cholesterol, and 34% high sucrose. LDLR KO mice fed this diet typically develop severe hypercholesterolemia (>800 mg/dL) and hypertriglyceridemia (>300 mg/dL) after only 2 weeks. By 12 weeks on the high fat diet, atherosclerotic lesions are detected in the aortic root and aortic arch on cryosections stained with Oil Red O (Sigma). Atherosclerosis was quantified in the aortic root as a percentage of the aortic root by taking the atherosclerotic area divided by the total aortic root area. Measurements were made with ImageJ software. All protocols for the animal model and procedures in this manuscript were approved by Northwestern University's Institutional Animal Care and Use Committee.
# Blood samples were collected at the end of the treatment study for toxicology analysis. Mice were euthanized three days after their 16th treatment.
# (§1) Tissue processing and imaging: Mice were sacrificed and euthanized under inhaled isoflurane anesthesia by diaphragm disruption and exsanguination. Phlebotomy was performed through direct right ventricular cardiac puncture using a 1 mL syringe and 25 G needle. Perfusion was performed through left ventricular cardiac puncture with 10 mL PBS and 10 mL 10% sucrose solution. The lungs, liver, spleen, kidney, aortic root, aortic arch, and descending aorta were harvested and stored in 10% sucrose for 20 minutes. Organs and vessels were then flash-frozen in Optimal Cutting Temperature embedding medium 4583 (Tissue-Tek®) with liquid nitrogen. Frozen specimens were stored at −80° C. and cryosectioned at […]. Confocal microscopy was performed on a Nikon AIR microscope. Two sets of images were acquired with a 10× Plan Fluor NA 0.3 objective. PAs were identified through quantification of the Alexa Fluor® 546 conjugated dye with 561 nm excitation and a 600/50 nm emission filter.
# Images were acquired with spectral detection and spectrally unmixed to accurately separate green autofluorescence from the red Alexa Fluor® 546 signal. Brightfield and fluorescent microscopy were performed using a Zeiss Axio Imager.A2 microscope with AxioVision software (release 4.8.2, 06-2010). All confocal and fluorescent sections were mounted with ProGold Diamond mounting media (Sigma). Slides were stained with Oil Red O to image and quantify atherosclerosis under brightfield microscopy. The elastic laminae were identified using the green fluorescent protein (GFP) filter with an exposure time of 3500 ms under 5× magnification. Nanofibers were identified in the aortic root by presence of Alexa Fluor® 546 on the Cy3 filter under 5-10× magnification, and in the internal organs under 20× magnification. Fluorescent pixel quantification in the aortic root and within organs was performed with ImageJ software.
# Statistics: The effect of treatments and sex on atherosclerosis progression in mice was analyzed using one- or two-factor analysis of variance (ANOVA) followed by a post-hoc student's t-test. The toxicological effects of treatments were also analyzed using two-factor ANOVA and a post-hoc student's t-test. Toxicological effects of treatments on liver proteins AST, ALT, and ALP were further analyzed using ordinal logistic regression models of likelihood ratio tests, followed by a post-hoc Wald test
# [5] = Off-target localization in internal organs, fluorescent pixel analysis; type: in vivo, mouse
# Procedure: Dose and concentration study: To determine the optimum concentration for targeting efficacy and safety, LDLR KO mice fed the high fat diet for 14 weeks were injected with PA nanofiber at concentrations of 1 mg/mL, 2 mg/mL, and 4 mg/mL at 8 mg/kg in PBS. Similarly, to determine the optimum dose for targeting efficacy and safety, LDLR KO mice fed the high fat diet for 14 weeks were injected at PA nanofiber doses of 8 mg/kg, 6 mg/kg, 4 mg/kg, 3.3 mg/kg, and 1.7 mg/kg at 2 mg/mL in PBS. Safety, optimum dose, and concentration for targeting was assessed by survival of the animal and fluorescent pixel quantification in the aortic root, liver, lungs, kidneys, and spleen.
# as §1
# Images were acquired with spectral detection and spectrally unmixed to accurately separate green autofluorescence from the red Alexa Fluor® 546 signal. […] Slides were stained with Oil Red O to image and quantify atherosclerosis under brightfield microscopy. […] Fluorescent pixel quantification in the aortic root and within organs was performed with ImageJ software.
Compound,critical aggregation concentration (CAC) [1] [µM],intracellular iNOS expression of stimulated macrophages [2],Diameter (nm) Average [3] [nm],Diameter (nm) Median [3] [nm],Length (nm) Average [3] [nm],Length (nm) Median [3] [nm],Diameter (nm) Average ([3]; listed as ApoA1) [nm],Length (nm) Median ([3]; listed as ApoA1) [nm],atherosclerosis progression in comparison to the PBS control [4],"detection in the lung, liver, and kidney ([5]; 1-14 days post injection)","time when red fluorescent pixels returned to non-injected control levels ([5]; all internal organs, post injection) [days]",time of detection in the spleen ([5]; post injection) [days]
"10% MMP-Ac2-26 PA: co-assembly of 10 mol % MMP-Ac2-26 PA, 50 mol % E2 filler PA, and 40% ApoA1 PA (VVAAEEGGGPQGIWGQGKAMVSEFLKQAWFIENEEQEYVQTVK)",~32,no effect upon iNOS expression,–,–,–,–,–,–,–,–,–,–
CCCCCCCCCCCCCCCC(=O)N[C@H](C(=O)N[C@H](C(=O)N[C@@H](C)C(=O)N[C@@H](C)C(=O)N[C@@H](CCC(=O)O)C(=O)N[C@@H](CCC(=O)O)C(=O)NCC(=O)N[C@@H](CC(=O)O)C(=O)N[C@@H](Cc1c[nH]c2ccccc12)C(=O)N[C@@H](Cc1ccccc1)C(=O)N[C@@H](CCCCN)C(=O)N[C@@H](C)C(=O)N[C@@H](Cc1ccccc1)C(=O)N[C@@H](Cc1ccc(O)cc1)C(=O)N[C@@H](CC(=O)O)C(=O)N[C@@H](CCCCN)C(=O)N[C@H](C(=O)N[C@@H](C)C(=O)N[C@@H](CCC(=O)O)C(=O)N[C@@H](CCCCN)C(=O)N[C@@H](Cc1ccccc1)C(=O)N[C@@H](CCCCN)C(=O)N[C@@H](CCC(=O)O)C(=O)N[C@@H](C)C(=O)N[C@@H](Cc1ccccc1)C(N)=O)C(C)C)C(C)C)C(C)C [ApoA1 PA] (Palmitoyl-VVAAEEGDWFKAFYDKVAEKFKEAF-NH2),–,–,9.6,9.5,626.9,615.9,9.6±1.7,616,significantly decreased,minimal detection,10 to 14,1 to 10
